Data taken from US20230101022A1, “GINSENOSIDE M1 AS A MODULATOR OF A[…] AND ITS USE FOR TREATING DISEASES OR […] SYMPTOMS CAUSED BY CORONAVIRUS” (priority 2020, published 2023).

Assays:
[1] = tested on: Ang II and Ang-(1-7) levels in the renal tissue; experiment: Ang II and Ang-(1-7) level assessment in the renal tissue of SHR/WKY rats (ELISA); type: in vivo, rat; conditions: 20 mg/kg oral once daily for 42 days, ELISA (FIG. 1)
Protocol: (§1) A total of 20 Wistar-Kyoto rats (WKY) and 20 SHR (male, 16˜17 weeks old) animals were grouped into four: WKY group (8 WKY, orally administered 0.5% CMC-Na); SHR group (8 SHR, orally administered 0.5% CMC-Na); WKY+Ginsenoside M1 group (8 WKY, orally administered 20 mg/kgGinsenoside M1); SHR +Ginsenoside M1 group (8 SHR, orally administered 20 mg/kg Ginsenoside M1). Ginsenoside M1 or placebo administration was carried out once daily for 42 days is was followed by animal sacrifice and blood and renal tissue sample collection. The renal tissue specimens underwent fixation with 4% formalin (histopathology) or were snap-frozen with liquid nitrogen and kept at −80° C. for reverse transcription quantitative real-time polymerase chain reaction (RT-qPCR) and enzyme-linked immunosorbent assay (ELISA).
(§2) The supernatants of renal specimens were prepared as follows. A total of 100 mg of the renal tissue was homogenized in 900 μL of ice-cold normal saline and submitted to centrifugation (1000 g, 4° C. for 15 min). The resulting supernatants were kept at −80° C. until analysis with Ang II and Ang-(1-7) ELISA kits, respectively, in accordance with the manufacturer's protocols.

[2] = tested on: ACE2; experiment: IHC of ACE2 in the renal tissue of SHR/WKY rats; type: in vivo, rat; conditions: SHR, 20 mg/kg oral once daily for 42 days, IHC (FIG. 2)
Protocol: as §1
(§3) ACE and ACE2 primary antibodies were produced by Bioss Antibodies. Peroxidase-linked goat anti-rabbit secondary antibodies and the DAB and two-step rabbit IHC kits were provided by ZSGB-BIO. IHC was carried out as proposed by ZSGB-BIO.

[3] = tested on: Ang II and Ang-(1-7) levels in the renal tissue; experiment: Ang II and Ang-(1-7) level assessment in the renal tissue of mice infused Ang II (ELISA); type: in vivo; conditions: C57BL/6 mice infused Ang II, 20 mg/kg oral daily for 14 days, ELISA (FIG. 3), vs Ang II group
Protocol: (§4) A total of twenty C57BL/6 mice (male, 10 weeks old) were maintained with rodent chow and water at will. Subcutaneous implantation of a 1002 osmotic minipump was performed at the dorsum of the neck for Ang II (1.5 mg/kg) or normal saline infusion animals were assigned to four groups: Saline group (5 mice, infused with normal saline and orally administered 0.5% CMC-Na); Ang II group (5 mice, infused with Ang II and orally administered 0.5% CMC-Na); Saline+Ginsenoside M1 group (5 mice, infused with normal saline and orally administered 20 mg·kg−1·d−1 Ginsenoside M1); Ang II +Ginsenoside M1 group (5 mice, infused with Ang II and orally administered 20 mg/kg Ginsenoside M1). Ginsenoside M1 or placebo administration was performed daily for 14 days, followed by animal sacrifice and blood and renal tissue sample collection. The renal tissue specimens underwent fixation with 4% formalin (histopathology) or were snap-frozen with liquid nitrogen and kept at −80° C. (RT-qPCR and ELISA).
as §2

[4] = tested on: ACE; experiment: IHC of ACE in the renal tissue of SHR/WKY rats; type: in vivo, rat; conditions: either WKY or SHR, 20 mg/kg oral once daily for 42 days, IHC (FIG. 2)
Protocol: as §1, §3

[5] = tested on: ACE; experiment: IHC of ACE in the renal tissue of mice (infusion model); type: in vivo; conditions: C57BL/6 mice infused saline or Ang II, 20 mg/kg oral daily for 14 days, IHC (FIG. 4)
Protocol: as §4, §3

[6] = tested on: ACE2; experiment: IHC of ACE2 in the renal tissue of mice (infusion model); type: in vivo; conditions: C57BL/6 mice infused Ang II, 20 mg/kg oral daily for 14 days, IHC (FIG. 4), vs the other three groups
Protocol: as §4, §3

[7] = tested on: bleomycin-induced lung fibrosis; experiment: Bleomycin-induced lung alveolitis and fibrosis in mice (Szapiel scoring); type: in vivo
Protocol: The animals were randomly divided into 5 groups as: (1) Saline group: 0.9% saline (200 μL) injection via the tail vein; (2) ACE2 group: a single intraperitoneal injection of ACE2 (0.2 mg/kg); (3) BLM group: a single injection of bleomycin at 150 mg/kg via the tail vein; and (4) BLM+ACE2 group: an injection of bleomycin at 150 mg/kg via the tail vein, followed by an intraperitoneal injection of ACE2 at 0.2 mg/kg. (5) BLM+ACE2+M1 group: an injection of bleomycin at 150 mg/kg via the tail vein, followed by an intraperitoneal injection of 0.2 mg/kg ACE2 and 60mg/kg M1. After administration, ten animals randomly selected from each group were euthanized on days 7, 14 and 28 by cervical dislocation.
Administration of bleomycin is a well-characterized model of pulmonary alveolitis or fibrosis in mice. The fibrotic changes in the lungs were determined using the Szapiel scoring method, higher score indicating greater disease condition. […] On day 28, in the BLM group, alveolitis spontaneously resolved; however, derangement of the alveolar architecture continued, and fibrosis persisted, characterized by diffuse, dense, thick collagen bundles and fibroblast foci.

[8] = day 14, bleomycin 150 mg/kg tail vein, ACE2 0.2 mg/kg i.p.

| Molecule | Ang II levels in the renal tissue ([1]; SHR, vs SHR group) | Ang-(1-7) amounts in the renal tissue ([1]; SHR, vs SHR group) | Ang II levels in the renal tissue ([1]; WKY) | ACE2 amounts in the renal tissue [2] | Ang II levels in the renal tissue [3] | Ang-(1-7) levels in the renal tissue [3] | ACE expression in the renal tissue [4] | ACE expression in the renal tissue [5] | ACE2 expression levels in the renal tissue [6] | Signs of alveolitis or fibrosis without bleomycin ([7]; ACE2 group: single i.p. injection 0.2 mg/kg, no bleomycin, days 7, 14 and 28) | Pathological changes in the lung (alveolitis) ([7]; day 7, bleomycin 150 mg/kg tail vein, ACE2 0.2 mg/kg i.p.) | Alveolitis (Szapiel scoring) [7, 8] | Fibrosis (Szapiel scoring) [7, 8] | Alveolitis (Szapiel scoring) ([7]; day 28, bleomycin 150 mg/kg tail vein, ACE2 0.2 mg/kg i.p., with or without M1 60 mg/kg) |
| --- | --- | --- | --- | --- | --- | --- | --- | --- | --- | --- | --- | --- | --- | --- |
| CC(C)=CCC[C@](C)(O[C@@H]1O[C@H](CO)[C@@H](O)[C@H](O)[C@H]1O)[C@H]1CC[C@]2(C)[C@@H]1[C@H](O)C[C@@H]1[C@@]3(C)CC[C@H](O)C(C)(C)[C@@H]3CC[C@]12C [Ginsenoside M1, 20-O-β-D-glucopyranosyl-20(S)-protopanaxadiol] | significantly reduced | significantly higher values compared with the SHR group | limited effects | further upregulate | attenuate this increase significantly | significant increase compared with the Ang II group | no significant effect | no marked differences | markedly elevated | – | – | – | – | – |
| ACE2: recombinant mouse ACE2 (angiotensin-converting enzyme 2) given by intraperitoneal injection (protein, UniProt Q8R0I0 18-805, looked up) Angiotensin-converting enzyme …: QSLTEENAKTFLNNFNQEAEDLSYQSSLASWNYNTNITEENAQKMSEAAAKWSAFYEEQSKTAQSFSLQEIQTPIIKRQLQALQQSGSSALSADKNKQLNTILNTMSTIYSTGKVCNPKNPQECLLLEPGLDEIMATSTDYNSRLWAWEGWRAEVGKQLRPLYEEYVVLKNEMARANNYNDYGDYWRGDYEAEGADGYNYNRNQLIEDVERTFAEIKPLYEHLHAYVRRKLMDTYPSYISPTGCLPAHLLGDMWGRFWTNLYPLTVPFAQKPNIDVTDAMMNQGWDAERIFQEAEKFFVSVGLPHMTQGFWANSMLTEPADGRKVVCHPTAWDLGHGDFRIKMCTKVTMDNFLTAHHEMGHIQYDMAYARQPFLLRNGANEGFHEAVGEIMSLSAATPKHLKSIGLLPSDFQEDSETEINFLLKQALTIVGTLPFTYMLEKWRWMVFRGEIPKEQWMKKWWEMKREIVGVVEPLPHDETYCDPASLFHVSNDYSFIRYYTRTIYQFQFQEALCQAAKYNGSLHKCDISNSTEAGQKLLKMLSLGNSEPWTKALENVVGARNMDVKPLLNYFQPLFDWLKEQNRNSFVGWNTEWSPYADQSIKVRISLKSALGANAYEWTNNEMFLFRSSVAYAMRKYFSIIKNQTVPFLEEDVRVSDLKPRVSFYFFVTSPQNVSDVIPRSEVEDAIRMSRGRINDVFGLNDNSLEFLGIHPTLEPPYQPPVTIWLIIFGVVMALVVVGIIILIVTGIKGRKKKNETKREENPYDSMDIGKGESNAGFQNSDDAQTSF | – | – | – | – | – | – | – | – | – | No signs of alveolitis or fibrosis | did not significantly alter | significantly attenuated | significantly attenuated | only mild to moderate alveolitis |
